“Also recorded” adds a separate entry of the source. Square brackets hold non-standard residues; d marks the D form. Ends that are not written are not given here. Peptide text beside a SMILES is read from it. pS = N[C@@H](COP(=O)(O)O)C(=O)O
Legend:
[1] = target: T1, IKK signalsome (Homo sapiens, UniProt O14920+O15111); assay: Inhibition of immunopurified IKK signalsome activity (32P incorporation into GST-IκBα(1-54)); assay type: biochemical; details: GST-IκBα(1-54) 0.56 μM, ATP 3 μM; for inhibition of IKK signalsome kinase (phosphorylation of GST-IκBα (1-54)): one hour at room temperature
T1 construct: endogenous in cells; host or cells: HeLa / HeLa S3 cells stimulated with TNFα; anti-MKP-1 immunoprecipitate
T1 sequence (O15111 whole entry): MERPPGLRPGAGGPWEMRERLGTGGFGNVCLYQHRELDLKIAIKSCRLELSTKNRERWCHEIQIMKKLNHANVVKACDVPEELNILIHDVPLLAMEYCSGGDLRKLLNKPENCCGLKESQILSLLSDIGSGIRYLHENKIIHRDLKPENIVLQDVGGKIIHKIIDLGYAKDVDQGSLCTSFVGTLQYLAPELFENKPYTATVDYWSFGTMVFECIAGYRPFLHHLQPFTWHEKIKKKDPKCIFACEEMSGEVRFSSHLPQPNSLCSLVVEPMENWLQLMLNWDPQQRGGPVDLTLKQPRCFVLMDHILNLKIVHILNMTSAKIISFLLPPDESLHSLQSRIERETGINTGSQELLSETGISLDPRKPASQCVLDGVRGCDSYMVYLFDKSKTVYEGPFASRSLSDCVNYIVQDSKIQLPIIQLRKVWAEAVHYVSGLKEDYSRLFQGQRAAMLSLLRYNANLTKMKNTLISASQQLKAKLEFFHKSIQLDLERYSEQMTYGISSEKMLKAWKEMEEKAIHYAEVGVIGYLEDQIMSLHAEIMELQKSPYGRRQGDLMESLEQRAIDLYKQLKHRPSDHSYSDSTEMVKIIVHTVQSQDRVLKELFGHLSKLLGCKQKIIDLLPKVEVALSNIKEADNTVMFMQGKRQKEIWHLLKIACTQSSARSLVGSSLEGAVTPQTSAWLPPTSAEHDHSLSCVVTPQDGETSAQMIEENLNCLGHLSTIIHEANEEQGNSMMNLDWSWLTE
T1 sequence (O14920 whole entry): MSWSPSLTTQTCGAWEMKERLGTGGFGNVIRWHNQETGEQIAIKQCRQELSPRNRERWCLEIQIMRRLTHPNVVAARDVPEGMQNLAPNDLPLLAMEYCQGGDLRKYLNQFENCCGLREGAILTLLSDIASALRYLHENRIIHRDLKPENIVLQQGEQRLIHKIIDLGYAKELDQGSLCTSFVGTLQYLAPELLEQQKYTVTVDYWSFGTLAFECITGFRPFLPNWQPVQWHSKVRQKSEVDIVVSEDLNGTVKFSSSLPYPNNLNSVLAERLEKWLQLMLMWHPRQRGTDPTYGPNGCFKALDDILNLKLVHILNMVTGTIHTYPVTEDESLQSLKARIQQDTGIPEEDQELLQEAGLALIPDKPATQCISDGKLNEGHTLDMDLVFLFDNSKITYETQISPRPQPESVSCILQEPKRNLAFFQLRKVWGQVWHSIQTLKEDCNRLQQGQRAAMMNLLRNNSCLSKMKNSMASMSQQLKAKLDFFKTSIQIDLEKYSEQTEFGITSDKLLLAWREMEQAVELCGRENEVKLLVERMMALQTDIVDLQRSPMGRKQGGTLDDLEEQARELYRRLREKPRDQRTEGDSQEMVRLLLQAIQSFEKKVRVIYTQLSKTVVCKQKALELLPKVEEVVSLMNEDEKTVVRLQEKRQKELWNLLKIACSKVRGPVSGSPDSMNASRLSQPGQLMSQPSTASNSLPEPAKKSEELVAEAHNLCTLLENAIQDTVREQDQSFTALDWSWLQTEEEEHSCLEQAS
T1 sequence (Q9Y6K9 whole entry partner): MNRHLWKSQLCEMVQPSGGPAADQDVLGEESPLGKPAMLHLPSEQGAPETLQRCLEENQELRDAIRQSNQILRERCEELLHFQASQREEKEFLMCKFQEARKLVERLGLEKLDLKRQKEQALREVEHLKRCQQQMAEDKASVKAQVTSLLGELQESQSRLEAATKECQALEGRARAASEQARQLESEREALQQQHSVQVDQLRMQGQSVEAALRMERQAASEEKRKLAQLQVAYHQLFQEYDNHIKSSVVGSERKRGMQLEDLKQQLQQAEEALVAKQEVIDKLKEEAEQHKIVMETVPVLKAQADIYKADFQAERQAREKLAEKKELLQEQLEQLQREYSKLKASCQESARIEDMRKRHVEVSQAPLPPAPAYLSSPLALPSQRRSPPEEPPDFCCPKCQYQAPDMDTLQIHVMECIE
Description: FIG. 9B is a graph illustrating the inhibition of phosphorylation of GST-IκBα (1-54) by IκBα(21-41) peptides. […] This assay only detects precipitated ^32P-labeled proteins, not ^32P-labeled peptides. Addition of the singly- or non-phosphorylated IκBα(21-41) peptides results in less phosphorylation of GST-IκBα (1-54) and apparent inhibition.
Inhibition of immunopurified IKK signalsome activity was measured by ^32P incorporation into GST-IκBα(1-54) in a discontinuous assay using the reaction conditions described above. The concentrations of GST-IκBα(1-54) and ATP used in the inhibition studies were 0.56 μM and 3 μM, respectively. Enzymatic reactions (32 μL) were carried out in wells of a 96 well assay plate for one hour at room temperature and terminated with the addition of trichloroacetic acid (TCA) (150 μL/well of 12.5% w/v). The subsequent 20 minute incubation with TCA precipitated the proteins but not peptides from solution. The TCA precipitate was collected on 96-well glass fiber plates (Packard) and washed 10 times with approximately 0.3 mL per well of Dulbecco's phosphate buffered saline pH 7.4 (Sigma) using a Packard Filtermate 196. Scintillation fluid (0.50 mL, MicroScint, Packard) was added to each well and the plate was analyzed for ^32P using a Packard TopCount scintillation counter. Less than 10% of ATP was turned over in the course of the assay reaction, ensuring that the kinetic data represented initial rate data. The inhibition constant of the P32, 36 peptide was determined by Dixon analysis (Dixon and Webb, In Enzymes (Academic Press: New York, ed. 3, 1979), pp. 350-51.

[2] = target: T1, IKK signalsome; assay: IKK signalsome activity in anti-MKP-1 immunoprecipitates from TNFα-stimulated HeLa S3 cells pretreated with inhibitor; assay type: cell-based; details: HeLa S3 cells pretreated 30 min with 15 μM prior to TNFα (20 ng/ml, 7 min)
Description: FIG. 8B illustrates the stimulus-dependent activation of IKK signalsome, which is blocked by TPCK. Anti-MKP-1 immunoprecipitates from cell extracts of HeLa S3 cells either stimulated for 7 min with TNFα (20 ng/ml, lane 2 and 6), IL-1 (10 ng/ml, lane 3), PMA (50 ng/ml, lane 4) or pretreated for 30 min with TPCK (15 μM, lane 7) prior to TNFα-induction were examined for IKK signalsome activity. GST IκBα 1-54 WT (4 μg) was used as a substrate.
For these studies, small scale immunoprecipitation were performed using two 150 mm plates of HeLa cells (one stimulated and one unstimulated). Whole cell lysates were diluted 4-fold with 2×Pull-Down Buffer (40 mM Tris pH 8.0, 500 mM NaCl, 0.1% NP-40, 6 mM EDTA, 6 mM EGTA, 10 mM β-glycerophosphate, 10 mM NaF, 10 mM PNPP, 300 μM Na3VO4, 1 mM benzamidine, 2 μM PMSF, 10 μg/ml aprotonin, 1 μg/ml leupeptin, 1 μg/ml pepstatin, 1 mM DTT) and 2-4 μg of the indicated antibody was added. Lysates were incubated on ice for 1-2 hours, 10 μl of Protein A or G beads were added, and lysates were left to incubate with gentle rotation for an additional 1 hour at 4° C. The immunoprecipitate was then washed 3 times with 2×Pull-Down Buffer, 1× with kinase buffer without ATP and subjected to a kinase assay as described in Example 2. […]

[3] = target: T1, IKK signalsome; assay: Phosphorylation of synthetic peptides by the IKK signalsome (immunokinase assay); assay type: biochemical; details: peptide 100 μM; for phosphorylation of peptide by IKK signalsome: γ-[32P]-ATP, one hour at room temperature
Description: FIG. 9A is an autoradiogram depicting the results of an immunokinase assay in which peptides are phosphorylated by the IKK signalsome. In the top panel, IκBα(21-41) peptides that were unphosphorylated or chemically phosphorylated on either Ser-32 or Ser-36 were incubated with the IKK signalsome in the presence of γ-[^32P]-ATP.
Phosphorylation of these peptides (100 μM) was performed using a kinase reaction as described above. Reactions were for one hour at room temperature and were terminated by the addition of SDS-PAGE loading buffer. SDS-PAGE with a 16% Tris/tricine gel (Novex, San Diego, Calif.) or a 4-20% Tris/glycine gel (Novex, San Diego, Calif.) was used to characterize the reaction products. Gels were washed, dried in vacuo, and exposed to autoradiographic film.

[4] = tested on: RelA translocation in HeLa cells; assay: RelA nuclear translocation in transiently transfected HeLa cells (immunofluorescence); assay type: cell-based, human
Description: HeLa cells were transiently transfected with either HA-tagged IKK-1 K44 to M mutant (14B) or Flag-tagged IKK-2 K44 to M mutant (14C) expression vectors. 36 hours post-transfection cells were either not stimulated (Unstim) or TNFα-stimulated (20 ng/ml) for 30 min (TNFα), as indicated to the right of the figure. Cells were then subjected to immunofluorescence staining using anti-HA of anti-Flag antibodies to visualize expression of IKK-1 K44 to M or IKK-2 K44 to M, respectively. Stimulus-dependent translocation of Rel A was monitored using anti-Rel A antibodies. Antibodies used are indicated to the top of the figure. IKK mutant transfected is indicated to the left of the figure.
For these studies, HeLa cells were transiently transfected with either HA-tagged IKK-1 or Flag-tagged IKK-2. Cells were fixed for 30 minutes with methanol. For immunofluorescence staining, the cells were incubated sequentially with primary antibody in PBS containing 10% donkey serum and 0.25% Triton X-100 for 2 hours followed by fluorescein-conjugated or Texas red-conjugated secondary antibody (Jackson Immunoresearch Laboratories, Inc., West Grove, Pa.; used at 1:500 dilution) for 1 hour at room temperature. The coverslips were rinsed and coverslipped with Vectashield (Vector Laboratories, Burlingame, Calif.) before scoring and photographing representative fields. […]

Molecule: CSCC[C@H](NC(=O)[C@H](COP(=O)(O)O)NC(=O)[C@H](CC(=O)O)NC(=O)[C@H](CC(C)C)NC(=O)CNC(=O)[C@H](COP(=O)(O)O)NC(=O)[C@H](CC(=O)O)NC(=O)[C@H](Cc1c[nH]cn1)NC(=O)[C@H](CCCNC(=N)N)NC(=O)[C@H](CC(=O)O)NC(=O)[C@H](CC(=O)O)NC(=O)[C@H](CC(C)C)NC(=O)[C@H](CC(C)C)NC(=O)[C@H](CCCNC(=N)N)NC(=O)[C@H](CCC(=O)O)NC(=O)[C@H](CCCCN)NC(=O)[C@H](CCCCN)NC(=O)[C@@H](N)CS)C(=O)N[C@@H](CCCCN)C(=O)N[C@@H](CC(=O)O)C(=O)N[C@@H](CCC(=O)O)C(=O)N[C@@H](CCC(=O)O)C(=O)O [IκBα(21-41) peptide P32,36] (H-CKKERLLDDRHD[pS]GLD[pS]MKDEE-OH)
- Ki ([1]; Dixon analysis, read-out: Ki (product inhibition of GST-IκBα (1-54) phosphorylation)): 14 µM

Molecule: Cc1ccc(S(=O)(=O)N[C@@H](Cc2ccccc2)C(=O)CCl)cc1 [TPCK]
- IKK signalsome activity in treated cells [2]: inhibited; also recorded: blocked

Molecule: CKKERLLDDRHDSGLDSMKDEE [IκBα (21-41) peptide]
- inhibition of IKK signalsome kinase (phosphorylation of GST-IκBα (1-54)) [1]: less effective inhibitors
- phosphorylation of peptide by IKK signalsome [3]: capable of phosphorylating

Molecule: CKKERLLDDRHDTGLDTMKDEE
- phosphorylation by the signalsome, fold less well than the wild-type serine-containing peptide [3]: at least 10 fold

Molecule: CPTNSALNYLKSPITTSPS [MKP-1 peptide]
- phosphorylation of peptide by IKK signalsome [3]: did not phosphorylate

Molecule: DLTGGPEVAT(PO3)PESEEAFLP [c-Fos(222-241)]
- inhibition of IKK signalsome kinase (phosphorylation of GST-IκBα (1-54)) [1]: does not function as an inhibitor
- inhibition of IKK signalsome kinase (phosphorylation of GST-IκBα (1-54)) ([1]; listed as c-Fos phosphopeptide): not
- inhibition of IKK signalsome kinase (phosphorylation of GST-IκBα (1-54)) ([1]; listed as c-fos phosphopeptide): not
- phosphorylation of peptide by IKK signalsome [3]: did not function as a signalsome substrate
- phosphorylation of peptide by IKK signalsome ([3]; listed as c-Fos phosphopeptide): did not phosphorylate

Molecule: singly-phosphorylated IκBα peptides: two IκBα (21-41) peptides, free serine at position 32 or 36 and phosphoserine at the other position (KKERLLDDRHDSGLDSMKDEE; not fully specified (N-terminus); also: pS at S32 or S36, free Ser at the other (two peptides); UniProt P25963 21-41, looked up, fragment)
- inhibition of IKK signalsome kinase (phosphorylation of GST-IκBα (1-54)) [1]: less effective inhibitors

B1: IKK-2 mutant: Flag-tagged kinase-inactive version (K44 to M) of IKK-2 (protein, UniProt O14920 1-756, looked up, variant K44M)
Inhibitor of nuclear factor …: MSWSPSLTTQTCGAWEMKERLGTGGFGNVIRWHNQETGEQIAIMQCRQELSPRNRERWCLEIQIMRRLTHPNVVAARDVPEGMQNLAPNDLPLLAMEYCQGGDLRKYLNQFENCCGLREGAILTLLSDIASALRYLHENRIIHRDLKPENIVLQQGEQRLIHKIIDLGYAKELDQGSLCTSFVGTLQYLAPELLEQQKYTVTVDYWSFGTLAFECITGFRPFLPNWQPVQWHSKVRQKSEVDIVVSEDLNGTVKFSSSLPYPNNLNSVLAERLEKWLQLMLMWHPRQRGTDPTYGPNGCFKALDDILNLKLVHILNMVTGTIHTYPVTEDESLQSLKARIQQDTGIPEEDQELLQEAGLALIPDKPATQCISDGKLNEGHTLDMDLVFLFDNSKITYETQISPRPQPESVSCILQEPKRNLAFFQLRKVWGQVWHSIQTLKEDCNRLQQGQRAAMMNLLRNNSCLSKMKNSMASMSQQLKAKLDFFKTSIQIDLEKYSEQTEFGITSDKLLLAWREMEQAVELCGRENEVKLLVERMMALQTDIVDLQRSPMGRKQGGTLDDLEEQARELYRRLREKPRDQRTEGDSQEMVRLLLQAIQSFEKKVRVIYTQLSKTVVCKQKALELLPKVEEVVSLMNEDEKTVVRLQEKRQKELWNLLKIACSKVRGPVSGSPDSMNASRLSQPGQLMSQPSTASNSLPEPAKKSEELVAEAHNLCTLLENAIQDTVREQDQSFTALDWSWLQTEEEEHSCLEQAS
modifications: Flag tag
- inhibition of RelA nuclear translocation ([4]; TNFα-stimulated (20 ng/ml, 30 min) HeLa cells, 36 hours post-transfection): striking and complete
- effect on subcellular localization of RelA ([4]; unstimulated HeLa cells): no effect
